Data: patent publication US20100099561A1, “HETEROBICYCLIC ALKYLTHIO-BRIDGED ISOXAZOLINES” (E.I. DU PONT DE NEMOURS AND COMPANY, priority 2008, published 2010)

What was measured:
Format in all cases: in vivo
[1] = tested on: barnyardgrass (Echinochloa crus-galli); assay: Test A preemergence, barnyardgrass; conditions: 0 to 100 scale (0 no effect, 100 complete control)
In short: (§1)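 Species planted together in a loam soil and sand blend received compound either as a preemergence soil spray or as a postemergence treatment when 2–10 cm tall with one to two leaves. About ten days later, injury was visually rated relative to untreated plants on a 0–100 scale.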

[2] = tested on: large crabgrass (Digitaria sanguinalis); assay: Test A preemergence, large crabgrass; conditions: 0 to 100 scale (0 no effect, 100 complete control)
In short: as §1

[3] = tested on: giant foxtail (Setaria faberi); assay: Test A preemergence, giant foxtail; conditions: 0 to 100 scale (0 no effect, 100 complete control)
In short: as §1

[4] = tested on: morningglory (Ipomoea spp.); assay: Test A preemergence, morningglory; conditions: 0 to 100 scale (0 no effect, 100 complete control)
In short: as §1

[5] = tested on: pigweed (Amaranthus retroflexus); assay: Test A preemergence, pigweed; conditions: 0 to 100 scale (0 no effect, 100 complete control)
In short: as §1

[6] = tested on: velvetleaf (Abutilon theophrasti); assay: Test A preemergence, velvetleaf; conditions: 0 to 100 scale (0 no effect, 100 complete control)
In short: as §1

[7] = tested on: wheat (Triticum aestivum); assay: Test A preemergence, wheat; conditions: 0 to 100 scale (0 no effect, 100 complete control)
In short: as §1

corn (Zea mays) [8] = assay: Test A preemergence, corn; conditions: 125 g ai/ha, 0 to 100 scale (0 no effect, 100 complete control)
In short: as §1

[9] = tested on: barnyardgrass (Echinochloa crus-galli); assay: Test A postemergence, barnyardgrass; conditions: 0 to 100 scale (0 no effect, 100 complete control)
In short: as §1

[10] = tested on: large crabgrass (Digitaria sanguinalis); assay: Test A postemergence, large crabgrass; conditions: 0 to 100 scale (0 no effect, 100 complete control)
In short: as §1

[11] = tested on: giant foxtail (Setaria faberi); assay: Test A postemergence, giant foxtail; conditions: 0 to 100 scale (0 no effect, 100 complete control)
In short: as §1

[12] = tested on: morningglory (Ipomoea spp.); assay: Test A postemergence, morningglory; conditions: 0 to 100 scale (0 no effect, 100 complete control)
In short: as §1

[13] = tested on: pigweed (Amaranthus retroflexus); assay: Test A postemergence, pigweed; conditions: 0 to 100 scale (0 no effect, 100 complete control)
In short: as §1

[14] = tested on: velvetleaf (Abutilon theophrasti); assay: Test A postemergence, velvetleaf; conditions: 0 to 100 scale (0 no effect, 100 complete control)
In short: as §1

[15] = tested on: wheat (Triticum aestivum); assay: Test A postemergence, wheat; conditions: 0 to 100 scale (0 no effect, 100 complete control)
In short: as §1

corn (Zea mays) [16] = assay: Test A postemergence, corn; conditions: 0 to 100 scale (0 no effect, 100 complete control)
In short: as §1

[17] = tested on: Italian ryegrass (Lolium multiflorum); assay: Test B preemergence, Italian ryegrass; conditions: Table B, preemergence; visual rating on a 0 to 100 scale (0 no effect, 100 complete control), 13 to 15 days after treatment; application rate of this section not shown
Description: (§2) Seeds of plant species selected from blackgrass (Alopecurus myosuroides), downy bromegrass (Bromus tectorum), green foxtail (Setaria viridis), Italian ryegrass (Lolium multiflorum), wheat (Triticum aestivum), wild oat (Avena fatua), catchweed bedstraw (Galium aparine), bermudagrass (Cynodon dactylon), Surinam grass (Brachiaria decumbens), cocklebur (Xanthium strumarium), corn (Zea mays), large crabgrass (Digitaria sanguinalis), woolly cupgrass (Eriochloa villosa), giant foxtail (Setaria faberii), goosegrass (Eleusine indica), johnsongrass (Sorghum halepense), kochia (Kochia scoparia), lambsquarters (Chenopodium album), morningglory (Ipomoea coccinea), nightshade (eastern black nightshade, Solanum ptycanthum), yellow nutsedge (Cyperus esculentus), pigweed (Amaranthus retroflexus), ragweed (common ragweed, Ambrosia elatior), soybean (Glycine max), sunflower (common oilseed sunflower, Helianthus annuus), Russian thistle (Salsola kali), and velvetleaf (Abutilon theophrasti) were planted into a blend of loam soil and sand and treated preemergence with test compounds formulated in a non-phytotoxic solvent mixture which included a surfactant. Treated plants and controls were maintained in a greenhouse for 13 to 15 days, after which time all species were compared to controls and visually evaluated. Plant response ratings, summarized in Table B, are based on a scale of 0 to 100 where 0 is no effect and 100 is complete control. A dash (-) response means no test result.

[18] = tested on: wheat (Triticum aestivum); assay: Test B preemergence, wheat; conditions: Table B, preemergence; visual rating on a 0 to 100 scale (0 no effect, 100 complete control), 13 to 15 days after treatment; application rate of this section not shown
Description: as §2

[19] = tested on: Surinam grass (Brachiaria decumbens); assay: Test B preemergence, Surinam grass; conditions: Table B, preemergence; visual rating on a 0 to 100 scale (0 no effect, 100 complete control), 13 to 15 days after treatment; application rate of this section not shown
Description: as §2

soybean (Glycine max) = assay: Test B preemergence, soybean; conditions: Table B, preemergence; visual rating on a 0 to 100 scale (0 no effect, 100 complete control), 13 to 15 days after treatment; application rate of this section not shown
Description: as §2

[20] = tested on: sunflower (common oilseed sunflower, Helianthus annuus); assay: Test B preemergence, sunflower; conditions: Table B, preemergence; visual rating on a 0 to 100 scale (0 no effect, 100 complete control), 13 to 15 days after treatment; application rate of this section not shown
Description: as §2

[21] = tested on: velvetleaf (Abutilon theophrasti); assay: Test B preemergence, velvetleaf; conditions: Table B, preemergence; visual rating on a 0 to 100 scale (0 no effect, 100 complete control), 13 to 15 days after treatment; application rate of this section not shown
Description: as §2

rice (Oryza sativa) = assay: Test B flooded paddy test, rice; conditions: Flood, scale 0 to 100
In short: (§3)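 Paddy-water application to 2-leaf plants in pots held under 3 cm of flooding; response is a 0–100 visual control rating against controls after 13 to 15 days, and a dash marks a missing result.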

[22] = tested on: umbrella sedge (Cyperus difformis); assay: Test B flooded paddy test, umbrella sedge; conditions: Flood, scale 0 to 100
In short: as §3

[23] = tested on: ducksalad (Heteranthera limosa); assay: Test B flooded paddy test, ducksalad; conditions: Flood, scale 0 to 100
In short: as §3

[24] = tested on: barnyardgrass (Echinochloa crus-galli); assay: Test B flooded paddy test, barnyardgrass; conditions: Flood
In short: as §3

Cn1c(=O)c(CS(=O)(=O)C2=NOC(C)(C)C2)c(C(F)(F)F)c2ccccc21 [Compound 1, 3-[[(4,5-dihydro-5,5-dimethyl-3-isoxazolyl)sulfonyl]methyl]-1-methyl-4-(trifluoromethyl)-2(1H)-quinolinone]
Plant response rating, Barnyardgrass ([1]; 125 g ai/ha): 0
Plant response rating, Barnyardgrass ([1]; 500 g ai/ha): 80
Plant response rating, Crabgrass, Large ([2]; 125 g ai/ha): 0
Plant response rating, Crabgrass, Large ([2]; 500 g ai/ha): 50
Plant response rating, Foxtail, Giant ([3]; 125 g ai/ha): 30
Plant response rating, Foxtail, Giant ([3]; 500 g ai/ha): 90
Plant response rating, Morningglory ([4]; 125 g ai/ha): 0
Plant response rating, Morningglory ([4]; 500 g ai/ha): 0
Plant response rating, Pigweed ([5]; 125 g ai/ha): 0
Plant response rating, Pigweed ([5]; 500 g ai/ha): 60
Plant response rating, Velvetleaf ([6]; 125 g ai/ha): 0
Plant response rating, Velvetleaf ([6]; 500 g ai/ha): 0
Plant response rating, Wheat ([7]; 125 g ai/ha): 0
Plant response rating, Wheat ([7]; 500 g ai/ha): 0
Plant response rating, Corn (corn (Zea mays) [8]): 0
Plant response rating, Barnyardgrass ([9]; 125 g ai/ha): 0
Plant response rating, Barnyardgrass ([9]; 500 g ai/ha): 80
Plant response rating, Crabgrass, Large ([10]; 125 g ai/ha): 10
Plant response rating, Crabgrass, Large ([10]; 500 g ai/ha): 70
Plant response rating, Foxtail, Giant ([11]; 125 g ai/ha): 20
Plant response rating, Foxtail, Giant ([11]; 500 g ai/ha): 80
Plant response rating, Morningglory ([12]; 125 g ai/ha): 0
Plant response rating, Morningglory ([12]; 500 g ai/ha): 0
Plant response rating, Pigweed ([13]; 125 g ai/ha): 0
Plant response rating, Pigweed ([13]; 500 g ai/ha): 50
Plant response rating, Velvetleaf ([14]; 125 g ai/ha): 0
Plant response rating, Velvetleaf ([14]; 500 g ai/ha): 20
Plant response rating, Wheat ([15]; 125 g ai/ha): 0
Plant response rating, Wheat ([15]; 500 g ai/ha): 0
Plant response rating, Corn (corn (Zea mays) [16]; 125 g ai/ha): 0
Plant response rating, Corn (corn (Zea mays) [16]; 500 g ai/ha): 0
Plant response rating, Ryegrass, Italian [17]: 0
Plant response rating, Wheat [18]: 0
Plant response rating, Surinam Grass [19]: 0
Plant response rating, Soybean (soybean (Glycine max)): 0
Plant response rating, Sunflower [20]: 0
Plant response rating, Velvetleaf [21]: 0
Plant response rating, Rice (rice (Oryza sativa); 31 g ai/ha): 0
Plant response rating, Rice (rice (Oryza sativa); 62 g ai/ha): 0
Plant response rating, Rice (rice (Oryza sativa); 125 g ai/ha): 0
Plant response rating, Rice (rice (Oryza sativa); 250 g ai/ha): 20
Plant response rating, Sedge, Umbrella ([22]; 31 g ai/ha): 0
Plant response rating, Sedge, Umbrella ([22]; 62 g ai/ha): 0
Plant response rating, Sedge, Umbrella ([22]; 125 g ai/ha): 0
Plant response rating, Sedge, Umbrella ([22]; 250 g ai/ha): 0
Plant response rating, Ducksalad ([23]; 31 g ai/ha): 0
Plant response rating, Ducksalad ([23]; 62 g ai/ha): 0
Plant response rating, Ducksalad ([23]; 125 g ai/ha): 0
Plant response rating, Ducksalad ([23]; 250 g ai/ha): 0
Plant response rating, Barnyardgrass ([24]; 31 g ai/ha, scale 0 to 100): 20
Plant response rating, Barnyardgrass ([24]; 62 g ai/ha, scale 0 to 100): 20
Plant response rating, Barnyardgrass ([24]; 125 g ai/ha, scale 0 to 100): 20
Plant response rating, Barnyardgrass ([24]; 250 g ai/ha, scale 0 to 100 (0 no effect, 100 complete control)): 20
